Test results published in US10441663B2, “Methods for treating cancer” (Bicycle Therapeutics Limited, priority 2016, dated 2019).
*1 amine or outer side, *2 acyl side, *3 side chain or, on linkers, in order; H or OH if unused. Where a SMILES comes first, the peptide text is derived from it. Bridges are numbered along the chain shown (N, C = ends). [ ]: non-standard residue; d: D form. The star is where a group is joined. X1 = COc1cc2cc(c1Cl)N(C)C(=O)C[C@H](OC(=O)[C@H](C)N(C)C(=O)CCSSC(C)CCC(=O)*)[C@]1(C)O[C@H]1[C@H](C)[C@@H]1C[C@@](O)(NC(=O)O1)[C@H](OC)/C=C/C=C(\C)C2; 1Nal = N[C@@H](Cc1cccc2ccccc12)C(=O)O; TBMB = c1c(C[*:1])cc(C[*:3])cc1C[*:2]; Tle = CC(C)(C)[C@H](N)C(=O)O; βAla = NCCC(=O)O; Sar = CNCC(=O)O

Tested on: HT1080 xenograft
Experiment: In vivo efficacy of BT1718 in HT1080 xenograft
Design: species or system Mus Musculus; key to Best response at 10 mg/kg: CR complete response; PR partial response
Procedure: The objective of this study was to evaluate the in vivo anti-tumor efficacy of BT1718in treatment of HT1080, NCI-H292, NCI-H1975, MDA-MB-231, HCC1806, RPMI2650, HCT-15, HT-29 and SNU-16 xenograft in BALB/c nude mice.
The HT1080, NCI-H292, NCI-H1975, MDA-MB-231, HCC1806, RPMI2650, HCT-15, HT-29 and SNU-16 tumor cells were maintained in vitro as a monolayer culture in medium supplemented with 10% heat inactivated fetal bovine serum at 37° C. in an […]. The tumor cells will be routinely subcultured twice weekly by trypsin-EDTA treatment. The cells growing in an exponential growth phase will be harvested and counted for tumor inoculation.
Mouse was inoculated subcutaneously at the right flank with tumor cells for tumor development. The animals were randomized and treatment was started when the average tumor reaches certain volume for the efficacy study, the inoculating cell amounts and starting tumor size were shown as below in Table 9. The test article administration and the animal numbers in each group were shown in the experimental design in Table 10.
All the procedures related to animal handling, care and the treatment in the study were performed according to the guidelines of the Association for Assessment and Accreditation of Laboratory Animal Care (AAALAC). At the time of routine monitoring, the animals were daily checked for any effects of tumor growth and treatments on normal behavior such as mobility, food and water consumption (by looking only), body weight gain/loss (body weights were measured every day), eye/hair matting and any other abnormal effect as stated in the protocol. Death and observed clinical signs were recorded on the basis of the numbers of animals within each subset.
The major endpoint was to see if the tumor growth could be delayed or mice could be cured. Tumor size was measured three times weekly in two dimensions using a caliper, and the volume was expressed in mm^3 using the formula: V=0.5 a×b^2 where a and b are the long and short diameters of the tumor, respectively. The tumor size was then used for calculations of T/C value. The T/C value (in percent) is an indication of antitumor effectiveness; T and C are the mean volumes of the treated and control groups, respectively, on a given day.
TGI was calculated for each group using the formula: TGI (%)=[1−(Ti−T0)/(Vi−V0)]×100; Ti is the average tumor volume of a treatment group on a given day, T0 is the average tumor volume of the treatment group on the day of treatment start, Vi is the average tumor volume of the vehicle control group on the same day with Ti, and V0 is the average tumor volume of the vehicle group on the day of treatment start.
Summary statistics, including mean and the standard error of the mean (SEM), are provided for the tumor volume of each group at each time point.
Statistical analysis of difference in tumor volume among the groups was conducted on the data obtained at the best therapeutic time point after the final dose.
A one-way ANOVA was performed to compare tumor volume among groups, and when a significant F-statistics (a ratio of treatment variance to the error variance) was obtained, comparisons between groups were carried out with Games-Howell test. All data were analyzed using Prism. P<0.05 was considered to be statistically significant.

COc1cc2cc(c1Cl)N(C)C(=O)C[C@H](OC(=O)[C@H](C)N(C)C(=O)CCSSC(C)CCC(=O)NCCC(=O)N(C)CC(=O)N(C)CC(=O)N(C)CC(=O)N(C)CC(=O)N(C)CC(=O)N(C)CC(=O)N(C)CC(=O)N(C)CC(=O)N(C)CC(=O)N(C)CC(=O)N[C@@H](C)C(=O)N[C@H]1CSCc3cc4cc(c3)CSC[C@H](NC(=O)[C@@H](C)NC(=O)[C@H](Cc3cccc5ccccc35)NC(=O)[C@H](CCC(=O)O)NC(=O)[C@H](CC(N)=O)NC(=O)[C@@H](C)NC1=O)C(=O)N[C@@H](CCC(=O)O)C(=O)N[C@@H](CC(=O)O)C(=O)N[C@@H](Cc1ccccc1)C(=O)N[C@@H](Cc1ccc(O)cc1)C(=O)N[C@@H](CC(=O)O)C(=O)N[C@@H](C(C)(C)C)C(=O)N[C@H](C(N)=O)CSC4)[C@]1(C)O[C@H]1[C@H](C)[C@@H]1C[C@@](O)(NC(=O)O1)[C@H](OC)/C=C/C=C(\C)C2 (stereo partly drawn) [BT1718] ({X1-βAla}-[Sar][Sar][Sar][Sar][Sar][Sar][Sar][Sar][Sar][Sar]AC[dA]NE[1Nal][dA]CEDFYD[Tle]C-NH2; linker 12-18-25 via TBMB (inferred))
animals with transient response on re-dosing (3 mg/kg biw): 1/3
animals that ultimately re-grew despite dosing (3 mg/kg biw re-dosing): 3/3
re-growth during dosing suspension (10 mg/kg biw, suspension period of 2 months): did not re-grow
response on re-dosing of the relapsed animal (10 mg/kg qw, re-growth in weeks 3-4 of re-dosing): transient response
Body Weight (1 mpk biw, day 0): 22.7 ± 0.5 g
Tumor Volume (1 mpk biw, day 0): 177 ± 6 mm^3
Body Weight (1 mpk biw, day 2): 22.2 ± 0.4 g
Tumor Volume (1 mpk biw, day 2): 265 ± 33 mm^3
Body Weight (1 mpk biw, day 4): 22.3 ± 0.2 g
Tumor Volume (1 mpk biw, day 4): 669 ± 107 mm^3
Body Weight (1 mpk biw, day 7): 22.2 ± 0.2 g
Tumor Volume (1 mpk biw, day 7): 1009 ± 156 mm^3
Body Weight (1 mpk biw, day 9): 21.5 ± 0.2 g
Tumor Volume (1 mpk biw, day 9): 1318 ± 146 mm^3
Body Weight (1 mpk biw, day 11): 20.1 ± 0.1 g
Tumor Volume (1 mpk biw, day 11): 1526 ± 160 mm^3
Body Weight (1 mpk biw, day 14): 19.4 ± 0.0 g
Tumor Volume (1 mpk biw, day 14): 1650 ± 218 mm^3
Body Weight (1 mpk qw, day 0): 22.5 ± 0.6 g
Tumor Volume (1 mpk qw, day 0): 178 ± 4 mm^3
Body Weight (1 mpk qw, day 2): 22.2 ± 0.5 g
Tumor Volume (1 mpk qw, day 2): 257 ± 26 mm^3
Body Weight (1 mpk qw, day 4): 22.6 ± 0.5 g
Tumor Volume (1 mpk qw, day 4): 627 ± 112 mm^3
Body Weight (1 mpk qw, day 7): 22.3 ± 0.3 g
Tumor Volume (1 mpk qw, day 7): 934 ± 176 mm^3
Body Weight (1 mpk qw, day 9): 22.2 ± 0.3 g
Tumor Volume (1 mpk qw, day 9): 1253 ± 182 mm^3
Body Weight (1 mpk qw, day 11): 20.5 ± 0.3 g
Tumor Volume (1 mpk qw, day 11): 1593 ± 251 mm^3
Body Weight (1 mpk qw, day 14): 19.6 ± 0.2 g
Tumor Volume (1 mpk qw, day 14): 1814 ± 320 mm^3
Body Weight (3 mpk biw, day 0): 23.1 ± 0.6 g
Tumor Volume (3 mpk biw, day 0): 178 ± 15 mm^3
Body Weight (3 mpk biw, day 2): 22.8 ± 0.9 g
Tumor Volume (3 mpk biw, day 2): 196 ± 16 mm^3
Body Weight (3 mpk biw, day 4): 22.5 ± 0.7 g
Tumor Volume (3 mpk biw, day 4): 100 ± 10 mm^3
Body Weight (3 mpk biw, day 7): 23.4 ± 0.8 g
Tumor Volume (3 mpk biw, day 7): 39 ± 8 mm^3
Body Weight (3 mpk biw, day 9): 24 ± 1.1 g
Tumor Volume (3 mpk biw, day 9): 18 ± 10 mm^3
Body Weight (3 mpk biw, day 11): 24.5 ± 0.9 g
Tumor Volume (3 mpk biw, day 11): 8 ± 8 mm^3
Body Weight (3 mpk biw, day 14): 24.7 ± 0.9 g
Tumor Volume (3 mpk biw, day 14): 3 ± 3 mm^3
Body Weight (3 mpk qw, day 0): 22.6 ± 0.3 g
Tumor Volume (3 mpk qw, day 0): 179 ± 18 mm^3
Body Weight (3 mpk qw, day 2): 21.4 ± 0.2 g
Tumor Volume (3 mpk qw, day 2): 191 ± 17 mm^3
Body Weight (3 mpk qw, day 4): 21.8 ± 0.8 g
Tumor Volume (3 mpk qw, day 4): 183 ± 90 mm^3
Body Weight (3 mpk qw, day 7): 22.0 ± 1.1 g
Tumor Volume (3 mpk qw, day 7): 218 ± 149 mm^3
Body Weight (3 mpk qw, day 9): 21.3 ± 0.7 g
Tumor Volume (3 mpk qw, day 9): 266 ± 142 mm^3
Body Weight (3 mpk qw, day 11): 21.4 ± 0.5 g
Tumor Volume (3 mpk qw, day 11): 254 ± 125 mm^3
Body Weight (3 mpk qw, day 14): 21.0 ± 0.6 g
Tumor Volume (3 mpk qw, day 14): 306 ± 119 mm^3
Body Weight (10 mpk biw, day 0): 22.5 ± 1.0 g
Tumor Volume (10 mpk biw, day 0): 180 ± 21 mm^3
Body Weight (10 mpk biw, day 2): 21.8 ± 1.2 g
Tumor Volume (10 mpk biw, day 2): 182 ± 41 mm^3
Body Weight (10 mpk biw, day 4): 21.8 ± 1.1 g
Tumor Volume (10 mpk biw, day 4): 58 ± 14 mm^3
Body Weight (10 mpk biw, day 7): 22.7 ± 0.9 g
Tumor Volume (10 mpk biw, day 7): 32 ± 7 mm^3
Body Weight (10 mpk biw, day 9): 22.1 ± 0.9 g
Tumor Volume (10 mpk biw, day 9): 27 ± 14 mm^3
Body Weight (10 mpk biw, day 11): 22 ± 1.1 g
Tumor Volume (10 mpk biw, day 11): 26 ± 13 mm^3
Body Weight (10 mpk biw, day 14): 22.6 ± 1.0 g
Tumor Volume (10 mpk biw, day 14): 20 ± 11 mm^3
Body Weight (10 mpk qw, day 0): 22.6 ± 1.2 g
Tumor Volume (10 mpk qw, day 0): 179 ± 14 mm^3
Body Weight (10 mpk qw, day 2): 21.1 ± 1.2 g
Tumor Volume (10 mpk qw, day 2): 146 ± 19 mm^3
Body Weight (10 mpk qw, day 4): 22.1 ± 1.2 g
Tumor Volume (10 mpk qw, day 4): 35 ± 4 mm^3
Body Weight (10 mpk qw, day 7): 23.2 ± 1.0 g
Tumor Volume (10 mpk qw, day 7): 25 ± 3 mm^3
Body Weight (10 mpk qw, day 9): 22.7 ± 1.1 g
Tumor Volume (10 mpk qw, day 9): 15 ± 8 mm^3
Body Weight (10 mpk qw, day 11): 23.8 ± 1.3 g
Tumor Volume (10 mpk qw, day 11): 5 ± 5 mm^3
Body Weight (10 mpk qw, day 14): 24.8 ± 1.5 g
Tumor Volume (10 mpk qw, day 14): 5 ± 5 mm^3
Best response at 10 mg/kg (HT1080, 10 mg/kg): CR
TGI (HT1080, 1 mpk, biw, day 14): 26.5%
Tumor Volume (HT1080, 1 mpk, biw, day 14): 1650 ± 218 mm^3
TGI (HT1080, 1 mpk, qw, day 14): 18.4%
Tumor Volume (HT1080, 1 mpk, qw, day 14): 1814 ± 320 mm^3
TGI (HT1080, 3 mpk, biw, day 14): 108.7%
Tumor Volume (HT1080, 3 mpk, biw, day 14): 3 ± 3 mm^3
TGI (HT1080, 3 mpk, qw, day 14): 93.7%
Tumor Volume (HT1080, 3 mpk, qw, day 14): 306 ± 119 mm^3
TGI (HT1080, 10 mpk, biw, day 14): 108.0%
Tumor Volume (HT1080, 10 mpk, biw, day 14): 20 ± 11 mm^3
TGI (HT1080, 10 mpk, qw, day 14): 108.7%
Tumor Volume (HT1080, 10 mpk, qw, day 14): 5 ± 5 mm^3
Minimally Effective Dose IV BIW (HT1080, dose leading to tumor-stasis): <3 mg/kg
tumor response (after 2 weeks, 3 mg/kg biw, 10 mg/kg qw and 10 mg/kg biw): completely regressed
animals with re-growth to 150 mm3 following cessation of dosing (previously 3 mg/kg biw): 3/3
animals with re-growth to 150 mm3 following cessation of dosing (previously 10 mg/kg qw): 1/3
